Reference: US20150258077A1, “SUBSTITUTED B[…] FOR TREATMENT OF DEMENTIA” (P2D Inc., priority 2012, published 2015)

What was measured:
[1] = test system: patients with dementia; conditions: Alzheimer's disease, frontotemporal dementia, vascular dementia; Dolder et al. review; cited from earlier work
[2] = test system: 3×Tg-AD mice; test: Short-term memory in single alternation T-maze, 3×Tg-AD mice; format: in vivo; conditions: 10 mg/kg in saline 1 hr prior to testing, vs saline controls, p<0.001
Procedure: In this model, genes that cause Alzheimer's disease have been cloned from living Alzheimer's patients and then directly cloned into the genome of living mice to create Alzheimer mice (3×Tg-AD mice). […] (Oddo, S., et al., Triple-transgenic model of Alzheimer's disease with plaques and tangles: intracellular Abeta and synaptic dysfunction. Neuron, 2003; 39(3):409-21.)
Short-term memory was assessed in a well-accepted memory model (single alternation T-maze). In these studies, animals were administered 10 mg/kg PD2005 in saline 1 hr prior to testing and controls were administered only saline.

[3] = molecular target: dopamine transporter (Homo sapiens, UniProt Q01959); conditions: result in words; cited from earlier work
dopamine transporter, sequence (Q01959 whole entry): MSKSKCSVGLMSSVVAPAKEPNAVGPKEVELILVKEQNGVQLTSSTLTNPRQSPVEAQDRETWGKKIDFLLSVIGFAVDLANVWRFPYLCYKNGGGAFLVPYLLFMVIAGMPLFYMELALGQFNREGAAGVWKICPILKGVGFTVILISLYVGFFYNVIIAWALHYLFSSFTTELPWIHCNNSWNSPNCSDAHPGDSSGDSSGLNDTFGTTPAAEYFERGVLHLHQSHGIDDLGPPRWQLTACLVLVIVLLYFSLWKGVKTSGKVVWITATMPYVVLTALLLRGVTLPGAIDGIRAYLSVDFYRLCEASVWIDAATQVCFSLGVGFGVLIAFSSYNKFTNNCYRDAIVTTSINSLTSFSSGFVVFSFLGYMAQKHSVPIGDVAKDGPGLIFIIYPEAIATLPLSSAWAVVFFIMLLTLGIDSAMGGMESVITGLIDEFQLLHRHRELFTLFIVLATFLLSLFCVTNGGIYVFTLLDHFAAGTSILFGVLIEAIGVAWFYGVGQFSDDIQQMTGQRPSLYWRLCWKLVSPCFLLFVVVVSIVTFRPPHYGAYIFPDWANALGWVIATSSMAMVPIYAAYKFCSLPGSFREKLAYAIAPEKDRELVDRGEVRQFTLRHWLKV

Compound: CC(N)Cc1ccccc1 (centres unmarked) [amphetamine]
- effectiveness in patients with dementia [1]: not effective

Compound: C=CCN1C2CCC1CC(OC(c1ccc(F)cc1)c1ccc(F)cc1)C2 (stereo not drawn) [PD2005, N-allyl-4′,4″-difluoro-3α-diphenyl-methoxytropane]
- improvement in memory ([2]; first day of testing): 140%
- memory improvement ([2]; following day of testing): 113%

Compound: CN1[C@@H]2CC[C@H]1C[C@@H](OC(c1ccccc1)c1ccccc1)C2 [benztropine]
- affinity for the dopamine transporter [3]: high affinity

Compound: COC(=O)C(c1ccccc1)C1CCCCN1 (centres unmarked) [methylphenidate]
- effectiveness in patients with dementia [1]: not effective
